Measured values: ChEMBL document CHEMBL1697781, “Assessment of the health effects of chemicals in humans: II. Construction of an adverse effects database for QSAR modeling” (Curr Drug Discov Technol, 2004)

Tested on: Hepatotoxicity
Test: FDA HLAED, liver enzyme composite activity
Details: human; call rule not given here

| Structure (SMILES) | Composite Activity - Active | Composite Activity - Marginal |
| --- | --- | --- |
| CC(=O)N[C@@H](CS)C(=O)O [ACETYLCYSTEINE] | 1 | 0 |
| O=C(O)C1N=C(c2ccccc2)c2cc(Cl)ccc2NC1=O (configuration not stated) [CLORAZEPIC ACID] | 0 | 0 |
| C#C[C@]1(O)CC[C@H]2[C@@H]3CCC4=Cc5oncc5C[C@]4(C)[C@H]3CC[C@@]21C [DANAZOL] | 1 | 0 |
| O=C1CN(/N=C/c2ccc(-c3ccc([N+](=O)[O-])cc3)o2)C(O)=N1 [DANTROLENE] | 0 | 0 |
| CC(=O)OCC(=O)[C@@]1(OC(=O)c2ccco2)[C@H](C)C[C@H]2[C@@H]3CCC4=CC(=O)C=C[C@]4(C)[C@@]3(F)[C@@H](O)C[C@@]21C [DEXAMETHASONE ACEFURATE] | 0 | 0 |
| CC(=O)OCC(=O)[C@@]1(O)[C@H](C)C[C@H]2[C@@H]3CCC4=CC(=O)C=C[C@]4(C)[C@@]3(F)[C@@H](O)C[C@@]21C [DEXAMETHASONE ACETATE] | 0 | 0 |
| CCC(=O)OCC(=O)[C@@]1(OC(=O)CC)[C@H](C)C[C@H]2[C@@H]3CCC4=CC(=O)C=C[C@]4(C)[C@@]3(F)[C@@H](O)C[C@@]21C [DEXAMETHASONE DIPROPIONATE] | 0 | 0 |
| CCCCC(=O)O[C@]1(C(=O)CO)[C@H](C)C[C@H]2[C@@H]3CCC4=CC(=O)C=C[C@]4(C)[C@@]3(F)[C@@H](O)C[C@@]21C [DEXAMETHASONE VALARATE] | 0 | 0 |
| C[C@@H]1C[C@H]2[C@@H]3CCC4=CC(=O)C=C[C@]4(C)[C@@]3(F)[C@@H](O)C[C@]2(C)[C@@]1(O)C(=O)CO [DEXAMETHASONE] | 0 | 0 |
| CC(C)N(CCC(C(N)=O)(c1ccccc1)c1ccccn1)C(C)C (configuration not stated) [DISOPYRAMIDE] | 0 | 0 |
| COc1cccc2c1C(=O)c1c(O)c3c(c(O)c1C2=O)C[C@@](O)(C(=O)CO)C[C@@H]3O[C@H]1C[C@H](N)[C@H](O)[C@H](C)O1 [DOXORUBICIN] | 0 | 0 |
| CC[C@@H](CO)NCCN[C@@H](CC)CO [ETHAMBUTOL] | 0 | 0 |
| CCNC(C)Cc1cccc(C(F)(F)F)c1 (configuration not stated) [FENFLURAMINE] | 0 | 0 |
| O=c1[nH]c(=O)n([C@H]2C[C@H](O)[C@@H](CO)O2)cc1F [FLOXURIDINE] | 0 | 0 |
| Nc1nc(=O)[nH]cc1F [FLUCYTOSINE] | 0 | 0 |
| CCCCCCCCCC(=O)OCCN1CCN(CCCN2c3ccccc3Sc3ccc(C(F)(F)F)cc32)CC1 [FLUPHENAZINE DECANOATE] | 0 | 0 |
| CCCCCCC(=O)OCCN1CCN(CCCN2c3ccccc3Sc3ccc(C(F)(F)F)cc32)CC1 [FLUPHENAZINE ENANTHATE] | 0 | 0 |
| OCCN1CCN(CCCN2c3ccccc3Sc3ccc(C(F)(F)F)cc32)CC1 [FLUPHENAZINE] | 0 | 0 |
| O=C(CCCN1CCC(O)(c2ccc(Cl)cc2)CC1)c1ccc(F)cc1 [HALOPERIDOL] | 0 | 0 |
| NS(=O)(=O)c1cc2c(cc1Cl)NCNS2(=O)=O [HYDROCHLOROTHIAZIDE] | 0 | 0 |
| NC(=O)NO [HYDROXYUREA] | 0 | 0 |
| OCCOCCN1CCN(C(c2ccccc2)c2ccc(Cl)cc2)CC1 (configuration not stated) [HYDROXYZINE] | 0 | 0 |
| COC(=O)Nc1nc2ccc(C(=O)c3ccccc3)cc2[nH]1 [MEBENDAZOLE] | 0 | 0 |
| CC(=O)O[C@]1(C(C)=O)CC[C@H]2[C@@H]3C[C@H](C)C4=CC(=O)CC[C@]4(C)[C@H]3CC[C@@]21C [MEDROXYPROGESTERONE ACETATE] | 0 | 0 |

| Structure (SMILES) | Composite Activity - Active | Composite Activity - Marginal |
| --- | --- | --- |
| CC(=O)O[C@]1(C(C)=O)CC[C@H]2[C@@H]3C=C(C)C4=CC(=O)CC[C@]4(C)[C@H]3CC[C@@]21C [MEGESTROL ACETATE] | 0 | 0 |
| C#C[C@]1(O)CC[C@H]2[C@@H]3CCc4cc(OC)ccc4[C@H]3CC[C@@]21C [MESTRANOL] | 0 | 0 |
| C=CCC1(C(C)C#CCC)C(=O)N=C(O)N(C)C1=O (configuration not stated) [METHOHEXITAL] | 0 | 0 |
| C[C@](N)(Cc1ccc(O)c(O)c1)C(=O)O [METHYLDOPA] | 0 | 0 |
| C[C@H]1C[C@@H]2[C@H]([C@@H](O)C[C@@]3(C)[C@H]2CC[C@]3(O)C(=O)COC(=O)CCCCCCC(=O)N(C)CCS(=O)(=O)O)[C@@]2(C)C=CC(=O)C=C12 [METHYLPREDNISOLONE 21-SULEPTANIC ACID ESTER] | 0 | 0 |
| CCC(=O)O[C@]1(C(=O)COC(C)=O)CC[C@H]2[C@@H]3C[C@H](C)C4=CC(=O)C=C[C@]4(C)[C@H]3[C@@H](O)C[C@@]21C [METHYLPREDNISOLONE ACEPONATE] | 0 | 0 |
| C[C@H]1C[C@@H]2[C@H]([C@@H](O)C[C@@]3(C)[C@H]2CC[C@]3(O)C(=O)COC(=O)CCC(=O)O)[C@@]2(C)C=CC(=O)C=C12 [METHYLPREDNISOLONE HEMISUCCINATE] | 0 | 0 |
| C[C@H]1C[C@@H]2[C@H]([C@@H](O)C[C@@]3(C)[C@H]2CC[C@]3(O)C(=O)CO)[C@@]2(C)C=CC(=O)C=C12 [METHYLPREDNISOLONE] | 0 | 0 |
| CC(C)(S)[C@@H](N)C(=O)O [PENICILLAMINE] | 0 | 0 |
| OCCN1CCN(CCCN2c3ccccc3Sc3ccc(Cl)cc32)CC1 [PERPHENAZINE] | 0 | 0 |
| COc1cc2nc(N3CCN(C(=O)c4ccco4)CC3)nc(N)c2cc1OC [PRAZOSIN] | 0 | 0 |
| C[C@]12C=CC(=O)C=C1CC[C@@H]1[C@@H]2C(=O)C[C@@]2(C)[C@H]1CC[C@]2(O)C(=O)CO [PREDNISONE] | 0 | 0 |
| CCC1(c2ccccc2)C(=O)NCNC1=O [PRIMIDONE] | 0 | 0 |
| CCCN(CCC)S(=O)(=O)c1ccc(C(=O)O)cc1 [PROBENECID] | 0 | 0 |
| CNNCc1ccc(C(=O)NC(C)C)cc1 [PROCARBAZINE] | 0 | 0 |
| C=C[C@H]1C[N@@]2CC[C@H]1C[C@@H]2[C@@H](O)c1ccnc2ccc(OC)cc12 [QUINIDINE] | 0 | 0 |
| CC(=O)S[C@@H]1CC2=CC(=O)CC[C@]2(C)[C@H]2CC[C@@]3(C)[C@@H](CC[C@@]34CCC(=O)O4)[C@H]12 [SPIRONOLACTONE] | 0 | 0 |
| O=C(O)c1cc(/N=N/c2ccc(S(=O)(=O)Nc3ccccn3)cc2)ccc1O [SULFASALAZINE] | 1 | 0 |
| CN(C)[C@@H]1C(O)=C(C(N)=O)C(=O)[C@@]2(O)C(O)=C3C(=O)c4c(O)cccc4[C@@](C)(O)[C@H]3C[C@@H]12 [TETRACYCLINE] | 0 | 0 |
| S=P(N1CC1)(N1CC1)N1CC1 [THIOTEPA] | 0 | 0 |
| NC[C@H]1O[C@H](O[C@H]2[C@H](O)[C@@H](O[C@H]3O[C@H](CO)[C@@H](O)[C@H](N)[C@H]3O)[C@H](N)C[C@@H]2N)[C@H](N)C[C@@H]1O [TOBRAMYCIN] | 0 | 0 |
| CN1CCN(CCCN2c3ccccc3Sc3ccc(C(F)(F)F)cc32)CC1 [TRIFLUOPERAZINE] | 0 | 0 |
| CC[C@]1(O)C[C@H]2CN(CCc3c([nH]c4ccccc34)[C@@](C(=O)OC)(c3cc4c(cc3OC)N(C=O)[C@H]3[C@@](O)(C(=O)OC)[C@H](OC(C)=O)[C@]5(CC)C=CCN6CC[C@]43[C@@H]65)C2)C1 [VINCRISTINE] | 0 | 0 |

Same assay, conditions: human, Liver

| Structure (SMILES) | Composite Activity - Active | Composite Activity - Marginal |
| --- | --- | --- |
| CN(C)CCC=C1c2ccccc2C=Cc2ccccc21 [CYCLOBENZAPRINE] | 0 | 0 |
| CN1C(=O)CN=C(c2ccccc2)c2cc(Cl)ccc21 [DIAZEPAM] | 0 | 0 |
| CCc1cc(C(N)=S)ccn1 [ETHIONAMIDE] | 0 | 0 |
| O=C1NC(=O)C(c2ccccc2)(c2ccccc2)N1 [PHENYTOIN] | 0 | 0 |
| CCCc1cc(=O)[nH]c(=S)[nH]1 [PROPYLTHIOURACIL] | 0 | 0 |
| Nc1ccc(S(=O)(=O)Nc2ncccn2)cc1 [SULFADIAZINE] | 0 | 0 |
| N[C@@H]1C[C@H]1c1ccccc1.N[C@H]1C[C@@H]1c1ccccc1 [TRANYLCYPROMINE] | 0 | 0 |

Tested on: Hepatotoxicity
Test: FDA HLAED, serum glutamic pyruvic transaminase (SGPT) increase
Details: human

| Structure (SMILES) | SGPT Increase - Activity Score | SGPT Increase - Index Value | SGPT Increase - Number of Reports |
| --- | --- | --- | --- |
| CC(=O)N[C@@H](CS)C(=O)O [ACETYLCYSTEINE] | Active | 4.8 | >= 4 |
| C#C[C@]1(O)CC[C@H]2[C@@H]3CCC4=Cc5oncc5C[C@]4(C)[C@H]3CC[C@@]21C [DANAZOL] | Active | 10.2 | >= 4 |
| O=C(O)c1cc(/N=N/c2ccc(S(=O)(=O)Nc3ccccn3)cc2)ccc1O [SULFASALAZINE] | Active | 4 | >= 4 |
